Measured values from patent EP1982595A1, “Insecticidal derivatives of substituted aminoheterocycles” (Bayer CropScience AG, priority 2007, dated 2008).
Read-outs that look alike come from different tables or passages of the source.

Legend:
[1] = logP (acidic) / lgP (HCOOH), phys. data; type: physicochemical; conditions: for logP: acidic; for lgP (HCOOH): preparation examples, b176 prints logP (HCOOH)
Myzus persicae = Myzus persicae - test (spray application); type: in vivo; conditions: read-out: activity (mortality in %)
Procedure: Myzus persicae - test; (spray application)
(§1) To produce a suitable preparation of active compound, 1 part by weight of active compound is mixed with the stated amount of solvent and emulsifier, and the concentrate is diluted with emulsifier-containing water to the desired concentration.
Chinese cabbage (Brassica pekinesis) leaf-disks infected with all instars of the green peach aphid (Myzus persicae), are sprayed with a preparation of the active ingredient at the desired concentration.
After the specified period of time, mortality in % is determined, 100% means that all aphids have been killed; 0% means that none of the aphids have been killed, […]

Tetranychus urticae = Tetranychus urticae - test; OP-resistant (spray application); type: in vivo; conditions: application rate of 100 g/ha, French bean, all stages
Procedure: Tetranychus urticae - test; OP-resistant (spray application)
as §1
French bean (Phaseolus vulgaris) which are heavily infested with all stages of the two spotted spidermite (Tetranychus urticae), are sprayed with a preparation of the active ingredient at the desired concentration.
After the specified period of time, mortality in % is determined, 100% means that all spider mites have been killed and 0% means that none of the spider mites have been killed.

Phaedon cochleariae = Phaedon cochleariae - test (spray application); type: in vivo; conditions: application rate of 500 g/ha, Chinese cabbage leaf-disks, mustard beetle larvae
Procedure: Phaedon cochlearlae - test (spray application)
To produce a suitable preparation of active compound, I part by weight of active compound is mixed with the stated amount of solvent and emulsifier, and the concentrate is diluted with emulsifier-containing water to the desired concentration.
Chinese cabbage (Brassica pekinesis) leaf-disks are treated by being sprayed with the preparation of the active compound of the desired concentration and are, after drying, infested with mustard beetle larvae (Phaedon cochleariae).
After the specified period of time, mortality in % is determined, 100 % means that all the beetle larvae have been killed; 0 % means that none of the beetle larvae have been killed.

[2] = Table I-1, read-out: Phys. data = logP (acidic)
[3] = application rate of 500 g/ha, spray application, Chinese cabbage leaf-disks, all instars of the green peach aphid

Molecule `S=C(NCc1ccccc1)N1CCOC1=NC1CCc2ccccc21` (centres unmarked) [1-1] has a logP [1, 2] of 4.46 and a mortality at 500 g/ha (Myzus persicae; [3]) of no less than 80%.
In the case of `S=C(NCc1ccccc1)N1CCOC1=N[C@H]1CCc2ccccc21` [1-2, N-benzyl-2-[(1S)-2,3-dihydro-1H-inden-1-ylimino]-1,3-oxazolidiner3-carbothioamide], the logP [1, 2] is reported as 4.46, the “lgP (HCOOH)” value [1] is reported as 4.46 and the mortality at 500 g/ha (Myzus persicae; [3]) is reported as no less than 80%. The mortality at 100 g/ha (Tetranychus urticae) was no less than 80%.
`S=C(NCc1ccc(Cl)cc1)N1CCOC1=N[C@H]1CCc2ccccc21` [1-19] gave a logP [1, 2] of 5.02 and a mortality at 500 g/ha (Myzus persicae; [3]) of no less than 80%.
In the case of `S=C(NCc1cccc(Cl)c1)N1CCOC1=N[C@H]1CCc2ccccc21` [1-20], the logP [1, 2] is reported as 4.97 and the mortality at 500 g/ha (Myzus persicae; [3]) is reported as no less than 80%.
`S=C(NCc1ccccc1Cl)N1CCOC1=N[C@H]1CCc2ccccc21` [1-21] gave a logP [1, 2] of 4.97 and a mortality at 500 g/ha (Myzus persicae; [3]) of no less than 80%.
With `S=C(NCc1ccc2c(c1)OCO2)N1CCOC1=N[C@H]1CCc2ccccc21` [1-22] the logP [1, 2] was 4.11, the mortality at 500 g/ha (Myzus persicae; [3]) was no less than 80% and the mortality at 500 g/ha (Phaedon cochleariae) was no less than 80%.
With `Cc1ccc(CNC(=S)N2CCOC2=N[C@H]2CCc3ccccc32)cc1` [1-23] the logP [1, 2] was 4.91 and the mortality at 500 g/ha (Myzus persicae; [3]) was no less than 80%.
In the case of `Fc1ccc(CNC(=S)N2CCOC2=N[C@H]2CCc3ccccc32)cc1` [1-24], the logP [1, 2] is reported as 4.51 and the mortality at 500 g/ha (Myzus persicae; [3]) is reported as no less than 80%.
Work on `COc1ccc(CNC(=S)N2CCOC2=N[C@H]2CCc3ccccc32)cc1` [1-25] yielded a logP [1, 2] of 4.28 and a mortality at 500 g/ha (Myzus persicae; [3]) of no less than 80%.
Molecule `COc1ccc(CNC(=S)N2CCOC2=N[C@H]2CCc3ccccc32)cc1OC` [1-26] has a logP [1, 2] of 3.8 and a mortality at 500 g/ha (Myzus persicae; [3]) of no less than 80%.
`S=C(NCc1ccc(Cl)cc1Cl)N1CCOC1=N[C@H]1CCc2ccccc21` [1-27] gave a logP [1, 2] of 5.65, a mortality at 500 g/ha (Myzus persicae; [3]) of no less than 80% and a mortality at 500 g/ha (Phaedon cochleariae) of no less than 80%.
In the case of `CC(NC(=S)N1CCOC1=N[C@H]1CCc2ccccc21)c1ccccc1` (some centres unmarked) [1-29], the logP [1, 2] is reported as 4.85.
For `CC(NC(=S)N1CCOC1=N[C@H]1CCc2ccccc21)c1ccccc1Cl` (some centres unmarked) [1-32], the logP [1, 2] was 5.31 and the mortality at 500 g/ha (Myzus persicae; [3]) was no less than 80%.
Work on `CC(NC(=S)N1CCOC1=N[C@H]1CCc2ccccc21)c1ccc(Cl)cc1` (some centres unmarked) [1-34] yielded a logP [1, 2] of 5.64 and a mortality at 500 g/ha (Myzus persicae; [3]) of no less than 80%.
`CC(NC(=S)N1CCOC1=N[C@H]1CCc2ccccc21)c1cccc(Cl)c1` (some centres unmarked) [1-35] gave a logP [1, 2] of 5.31, a mortality at 500 g/ha (Myzus persicae; [3]) of no less than 80% and a mortality at 500 g/ha (Phaedon cochleariae) of no less than 80%.
In the case of `CC(NC(=S)N1CCOC1=NC1CCc2ccccc21)c1ccc(F)cc1` (centres unmarked) [1-36], the logP [1, 2] is reported as 4.91 and the mortality at 500 g/ha (Myzus persicae; [3]) is reported as no less than 80%.
For `S=C(NCCc1ccc(Cl)cc1)N1CCOC1=N[C@H]1CCc2ccccc21` [1-38], the logP [1, 2] was 5.25 and the mortality at 500 g/ha (Myzus persicae; [3]) was no less than 80%.
In the case of `S=C(NCCc1cccc(Cl)c1)N1CCOC1=N[C@H]1CCc2ccccc21` [1-39], the logP [1, 2] is reported as 5.19, the mortality at 500 g/ha (Myzus persicae; [3]) is reported as no less than 80% and the mortality at 500 g/ha (Phaedon cochleariae) is reported as no less than 80%.
In the case of `S=C(NCc1ccc(Cl)nc1)N1CCOC1=N[C@H]1CCc2ccccc21` [1-40], the logP [1, 2] is reported as 4.04.
`S=C(NCc1ccncc1)N1CCOC1=N[C@H]1CCc2ccccc21` [1-43] showed a logP [1, 2] of 1.87.
In the case of `S=C(NCc1cccnc1)N1CCOC1=N[C@H]1CCc2ccccc21` [1-44], the logP [1, 2] is reported as 2.17 and the mortality at 500 g/ha (Myzus persicae; [3]) is reported as no less than 80%.
`S=C(NCc1ccco1)N1CCOC1=N[C@H]1CCc2ccccc21` [1-45] gave a logP [1, 2] of 4.17.
Work on `C=CCNC(=S)N1CCOC1=NC1CCc2ccccc21` (centres unmarked) [1-47] yielded a logP [1, 2] of 3.85 and a mortality at 500 g/ha (Myzus persicae; [3]) of no less than 80%.
For `C=CCNC(=O)N1CCOC1=NC1CCc2ccccc21` (centres unmarked) [1-48], the logP [1, 2] was 3.85.
In the case of `S=C(NCc1ncccn1)N1CCOC1=N[C@H]1CCc2ccccc21` [1-71], the logP [1, 2] is reported as 2.92.
`CC(C)=CCNC(=S)N1CCOC1=N[C@H]1CCc2ccccc21` [1-72] gave a logP [1, 2] of 4.78.
In the case of `CC(NC(=S)N1CCSC1=NC1CCc2c(F)cccc21)c1ccccc1` (centres unmarked) [2-31, 2-[aza(4-fluorindanyl)-methylene](1,3-thiazolidine-3-yl)(alphamethylbenzylamino)methane-1-thione], the Phys. data ([1]; Table I-2, key logP (acidic) is printed only in the head of Table I-1) is reported as 5.47 and the logP ([1]; preparation example 3, text, read-out: logP (acidic)) is reported as 5.47.
In the case of `S=C(NCc1ccccc1)N1CCOC1=N[C@H]1CCCc2ccccc21` [3-2, N-benzyl-2-[(1S)-1,2,3,4-tetrahydronaphthaline-1-ylimino]-1,3-oxazolidine-3-carbothioamide], the Phys. data ([1]; Table I-3, logP (HCOOH), i.e. acidic conditions) is reported as 4.67, the “lgP (HCOOH)” value [1] is reported as 4.67 and the mortality at 500 g/ha (Myzus persicae; in Brassica rapa) is reported as no less than 80%.
